In US20070299029A1, “Hepatic stellate cell specific promoter and uses thereof” (Agency for Science, Technology and Research, priority 2005, published 2007):
Read-outs that look alike come from different tables or passages of the source.

How the values were obtained:
[1] = Yang et al. (1998); cited from earlier work
endogenous rat GFAP mRNA = assay: real-time RT-PCR for endogenous rat GFAP mRNA in T6/GFAP-lacZ cells; assay type: cell-based
Description: (§1) Cells were initially seeded in 12-well plates in DMEM supplemented with 10% FBS and weaned to a low serum DMEM (0.5% FBS) at a confluence of 70-80% for 12 hours of adaptation. Cells were then incubated with different concentrations of compounds for various amounts of time before being assayed for β-galactosidase activity and GFAP mRNA. For compound attenuation studies, cells were treated with a pro-fibrotic cytokine (TGF-β1 or PDGF-BB) either sequentially or concurrently with a compound (EGCG or genistein). In the sequential scheme, cells were first treated with a cytokine for 1-3 days, then the cytokine-containing culture medium was replaced with a fresh medium containing a particular compound only for various times. Details of the cytokine/compound treatments can be found in the individual figure legends.
Total RNA was reverse-transcribed to cDNA using Taqman's reverse transcription reagent (Applied Biosystems, CA, USA). A total of 200 ng of RNA in 7.7 μl of nuclease-free water was added to 2 μl 10× reverse transcriptase buffer, 4.4 μl 25 mM magnesium chloride, 4 μl deoxyNTP mixtures, 1 μl random hexamers, 0.4 μl RNase inhibitor and 0.5 μl reverse transcriptase (50 U/μl) in a final reaction volume of 20 μl. The reaction was performed for 10 min at 25° C. (annealing), 30 min at 48° C. (cDNA synthesis) and 5 min at 95° C. (enzyme denaturation).
Real-time quantitative PCR was carried out with an ABI 7500 Fast Real-time PCR System (Applied Biosystems, CA, USA). Two micro liters of sample cDNA were used in each PCR reaction, with β-actin gene as a reference for normalization. The primers and probes for rat β-actin and GFAP were ordered from Taqman's assay-on-demand database. The PCR reaction was performed under a default profile consisting of 95° C. for 20 seconds (enzyme denaturation) and 40 cycles of amplification (denaturation 3 seconds, annealing and extension 30 seconds). Some of the real-time RT-PCR reactions were separated on an agarose gel for visual confirmation of discrete products (data not shown).
Relative quantitation of the target mRNA was calculated using the comparative threshold cycle (CT) methods as described in the User Bulletin #2 (ABI Prism 7700 Sequence Detection System). CT indicates the fractional cycle number at which the amount of amplified target reaches a fixed threshold within the linear phase of gene amplification. ΔCT, which reflects the difference between CT target and CT β-actin, is inversely correlated to the abundance of mRNA transcripts in the samples. ACT for each sample was normalized against control experiment or calibrator and expressed as ΔΔCT. Relative quantitation is given by 2^−ΔΔCT to express the up-regulation or down-regulation of the target gene under the treatments compared to the control.

GFAP-lacZ transgene = assay: chemiluminescent β-galactosidase activity assay of GFAP-lacZ transgene expression in T6/GFAP-lacZ cells; assay type: cell-based, rat
Description: as §1
(§2) A lacZ reporter assay kit for cell staining (InvivoGen, CA, USA) was used to detect the reporter gene activity in T6/GFAP-lacZ cells treated with EGCG or genistein. The staining results were documented with a digital camera (DP12) attached to an Olympus inverted bright field microscope (IX51) after development for 60 min. For quantification, the β-galactosidase activity in cell extracts was measured using a chemiluminescent assay kit (Roche, Mannheim, Germany) in a 96-well plate format, according to the manufacturer's instructions. Briefly, cells were washed twice with ice-cold 1×PBS (pH 7.4), lysed for 30 minutes at room temperature with the lysis buffer, and supernatant was collected for assays. Protein concentration was determined with a BCA protein assay kit (Pierce, Ill., USA). Specific β-galactosidase activity was obtained by normalizing against total cellular protein content.

T6/GFAP-lacZ cells [2] = assay: X-gal stained images of T6/GFAP-lacZ cells (cell number); assay type: cell-based, rat; details: 24 hours, low serum (0.5% FBS) DMEM
Description: FIG. 15 depicts X-gal staining of T6/GFAP-lacZ cells. Incubation with A) DMSO vehicle control; B) 25 μM EGCG; and C) 40 μM genistein in a low serum DMEM for 24 hours. Images were captured after 60 min of X-gal staining;
as §2
EGCG is a major catechin from green tea leaves associated with a wide range of beneficial activities including anti-oxidation, anti-inflammation and anti-fibrosis, whereas genistein is a major flavonoid found abundantly in soy bean with anti-tumor and pro-apoptotic activities. […]

T6/GFAP-lacZ cells [3] = assay: tetrazolium-based proliferation assay of T6/GFAP-lacZ cells; assay type: cell-based, rat; details: 48 hours, low serum (0.5% FBS) medium, read-out: IC50 of proliferation inhibition
Description: FIG. 14 illustrates that EGCG and genistein suppressed proliferation of the T6/GFAP-lacZ cells. Cells were grown in full medium to 70-80% confluence in 96-well plates, followed by compound treatment of various concentrations (0-40 μM) in a low serum medium for 48 hours before assaying for proliferation. Signal was normalized against vehicle treatment (0 μM compound). Data was obtained from three independent experiments and presented as mean ±SE.
However our genistein IC50 value for the T6/GFAP-lacZ cells was three times lower than that for the T6 cells cultured in DMEM containing 10% FBS (Kang et al., (2001) supra). Our additional data also confirmed that no significant difference in IC50 value was observed between the T6 and the T6/GFAP-lacZ cells (data not shown).

## O=C(O[C@@H]1Cc2c(O)cc(O)cc2O[C@@H]1c1cc(O)c(O)c(O)c1)c1cc(O)c(O)c(O)c1 [EGCG, epigallocatechin gallate]
[1]
  half-life in human plasma: about 5 hours
Endogenous rat GFAP mRNA; 10 ng/ml PDGF, incubation with 10 μM of EGCG for two days
  PDGF-induced GFAP elevation, % of the endogenous control: 8%
Endogenous rat GFAP mRNA; 130 nM EGCG, 48 hours
  GFAP transcription, % of the control level: 34%
Endogenous rat GFAP mRNA; 10 μM EGCG, 24 hours (maximum suppression)
  endogenous GFAP mRNA, % of the control: 39%
Endogenous rat GFAP mRNA; EGCG dosages above 130 nM up to 20 μM, 48 hours
  GFAP transcription at increasing dosages: no further suppression
Endogenous rat GFAP mRNA; concurrent: 1 ng/ml TGF-β1 with 5 μM EGCG, 56 hours
  endogenous GFAP mRNA, % of TGF-β1-alone control: 29%
Endogenous rat GFAP mRNA; sequential: 1 ng/ml TGF-β1 48 hours, then 5 μM EGCG 8 hours
  endogenous GFAP mRNA, % of TGF-β1-alone control: 45%
GFAP-lacZ transgene; 10 ng/ml PDGF-BB, incubation with 10 μM of EGCG for two days
  PDGF-induced GFAP-lacZ elevation, % of the transgenic control: 60%
GFAP-lacZ transgene; 5 μM EGCG, 2 hours
  GFAP-lacZ transgene expression (β-galactosidase activity), % of the control: 82%
GFAP-lacZ transgene; 20 μM EGCG, 2 hours
  GFAP-lacZ transgene expression (β-galactosidase activity), % of the control: 55%
GFAP-lacZ transgene; 20 μM EGCG, 4 hours
  GFAP-lacZ transgene expression (β-galactosidase activity), % of the control level: 73%
GFAP-lacZ transgene; EGCG all dosages (up to 20 μM), 24 hours
  inhibitory effect on GFAP-lacZ transgene expression: completely abolished
GFAP-lacZ transgene; concurrent: 10 ng/ml TGF-β1 with 20 μM EGCG 26 hours
  β-galactosidase activity, % of TGF-β1-alone control: 66%
GFAP-lacZ transgene; sequential: 10 ng/ml TGF-β1 24 hours, then 20 μM EGCG 2 hours, not statistically significant
  β-galactosidase activity, % of TGF-β1-alone control: 87%
T6/GFAP-lacZ cells [2]; 25 μM EGCG
  proliferation inhibition (fewer cells than control): significant proliferation inhibition
T6/GFAP-lacZ cells [3]
  IC50: 31 µM

## O=c1c(-c2ccc(O)cc2)coc2cc(O)cc(O)c12 [genistein]
Endogenous rat GFAP mRNA; 10 μM genistein, time course 0-72 hours
  effect on endogenous GFAP mRNA: less predictable, ranging from suppression at 24 hours to induction at 72 hours
Endogenous rat GFAP mRNA; 20 μM genistein, 8 hours
  endogenous GFAP mRNA, % of the control: 23%
Endogenous rat GFAP mRNA; 20 μM genistein, 72 hours
  endogenous GFAP mRNA, % of the control: 43%
Endogenous rat GFAP mRNA; concurrent: 20 μM genistein and 1 ng/ml TGF-β1, 56 hours
  TGF-β1-induced GFAP transcription, % of the control: 14%
Endogenous rat GFAP mRNA; concurrent: 20 μM genistein and 10 ng/ml PDGF, 48 hours
  endogenous GFAP transcription, % of the PDGF-BB-alone control: 6%
Endogenous rat GFAP mRNA; genistein dose experiment, 48 hours
  reliable inhibitory concentration for GFAP mRNA: higher than 10 μM
Endogenous rat GFAP mRNA; sequential: 1 ng/ml TGF-β1 48 hours, then 20 μM genistein 8 hours
  TGF-β1-induced GFAP transcription, % of the control: 26%
Endogenous rat GFAP mRNA; sequential: 10 ng/ml PDGF 24 hours, then 20 μM genistein 24 hours
  endogenous GFAP transcription, % of the PDGF-BB-alone control: 8.6%
GFAP-lacZ transgene; 40 μM genistein, 24 hours (largest suppression)
  GFAP-lacZ transgene expression (β-galactosidase activity), % of the control: 65%
GFAP-lacZ transgene; concurrent: 40 μM genistein and 10 ng/ml PDGF-BB, 72 hours
  PDGF-BB-induced GFAP-lacZ, % of PDGF-BB-alone control: 48%
GFAP-lacZ transgene; concurrent: 40 μM genistein and 10 ng/ml TGF-β1, 48 hours
  β-galactosidase activity, % of the TGF-β1-alone control: 43%
GFAP-lacZ transgene; sequential: 10 ng/ml PDGF-BB 48 hours, then 40 μM genistein 24 hours
  PDGF-BB-induced GFAP-lacZ, % of PDGF-BB-alone control: 79%
GFAP-lacZ transgene; sequential: 10 ng/ml TGF-β1 24 hours, then 40 μM genistein 24 hours
  suppressing effect on TGF-β1-induced β-galactosidase activity: negligible
T6/GFAP-lacZ cells [2]; 40 μM genistein
  proliferation inhibition (fewer cells than control): significant proliferation inhibition
T6/GFAP-lacZ cells [3]; Rattus norvegicus
  IC50: 25 µM
